The values that follow come from patent US20060240494A1, “Biocidal molecules, macromolecular targets and methods of production and use” (priority 2000, published 2006).

“And” between values parts separate entries of the source, which are not always exact repeats. Equal values may be shown once. Read-outs that look alike come from different tables or passages of the source. Non-standard residues stand in square brackets, D forms with d. Residues, ends and D or L forms follow the SMILES beside them. No end group written: not given here. Ac6c = NC1(C(=O)O)CCCCC1; Dap = NC[C@H](N)C(=O)O

The target in data set [1] is E. coli DnaK fragment aa588-615 (Escherichia coli, UniProt P0A6Y8). In words: Fluorescence polarization with synthetic DnaK fragment aa588-615. It counts as binding. On the technique in general: In fluorescence polarisation assays a small probe gives low polarisation when free and higher when bound to something large.
Data set [2] has as its system β-galactosidase activities of live E. coli TG-1 cells. Type of data set: cell-based. The following applies: for Inhibition of enzymatic activity after 1 hour (%) β-Galactosidase: peptide 32 μg/mL, live E. coli TG-1, three independent assays.
For data set [3] the following is noted: within a four-hour period; Hoffmann et al, 1999; cited from earlier work.
The conditions of data set [4]: within a four-hour period; Hoffmann et al, 1999; cited from earlier work. The source holds these as a separate data set.
The target of data set [5] is E. coli DnaK aa583-615 (Escherichia coli, UniProt P0A6Y8). In words: Circular dichroism of peptide - E. coli DnaK fragment mixtures. It counts as binding. The note with it: DnaK spectrum subtracted from mixture. From the text: CD spectra are taken in water, and water-trifluoroethanol (TFE) mixtures to determine whether the characteristic unordered or turn→α-helix conformational transition, frequently observed for peptide fragments of helical domains of proteins, occurs at identical TFE concentrations. In pure water, the CD spectra of the E. coli and S. aureus DnaK fragments could be assigned as a type C spectrum, and reflect the dominance of type I (III) β-turns, or a mixture of type I and type II turns. […] This is an unmistakable indication of the appearance of helical structures, most likely 310-helices. The two DnaK fragments behaved identically, at least in spectral terms. While the spectral features of well-developed α-helices could already be seen at a TFE concentration as low as 10%, the intensity was increased with increasing TFE content. In 100% TFE a fully α-helical spectrum was recorded.
To estimate the bound conformation of the antibacterial peptides, the spectra of drosocin or pyrrhocoricin alone, as well as those of the E. coli and S. aureus DnaK fragments were recorded, followed by the recording of the CD spectra of antibacterial peptide-DnaK fragment mixtures. […]
(In general: Circular dichroism is widely used to follow secondary structure.)

For data set [6], the target named is T1, recombinant E. coli DnaK (Escherichia coli, UniProt P0A6Y8).
T1 construct: purchased StressGen, Victoria, Canada
In words: EnzChek ATPase assay, recombinant DnaK. It counts as biochemical. The following applies: 50 molar equivalents of peptide; 22° C., 30 min; UV absorbance at 360 nm. The text has this:
To determine whether the proline-rich antibacterial peptides that were predicted to bind to DnaK between the peptide binding pocket and the C-terminus would interfere with ATPase activity, a recently developed continuous spectrophotometric (colorimetric) ATPase activity assay [Rieger, C. E. et al, (1997) Anal. Biochem. 246: 86-95] was used. This assay uses using 2-amino-6-mercapto-7-methylpurine ribonucleoside (MESG)/purine nucleoside phosphorylase reaction to detect the released inorganic phosphate (EnzChek ATPase determination kit from Molecular Probes, Eugene, USA). Assays were performed in 500 μL tubes in duplicates in a total volume of 125 μL containing 20 mM tris(hydroxymethyl)amino-ethane (Tris)-HCl, pH 7.6, 1 mM MgCl2, […] (except in assaying the baseline), 5 μg of DnaK (recombinant DnaK protein from StressGen,Victoria, Canada) and 50 molar equivalents of the particular peptide, MESG and the purine nucleoside phosphorylase recommended by the manufacturer. After incubation at 22° C. for 30 min, 100 μL of the reaction mixture was transferred to a quartz cuvette and the ultraviolet (UV) absorbance at 360 nm was measured. The assay was run in a miniaturized form to increase the concentration and therefore the enzymatic activity of DnaK. In a larger, standard format the ATPase activity of DnaK without peptide addition was 6 pmol/μg/min, in line with the published data of 4 pmol/μg/min [Liberek, K. et al, (1991) Proc. Natl. Acad. Sci. USA 88: 2874-2878].

In data set [7] the test system is alkaline phosphatase activities of live E. coli TG-1 cells. Type of data set: cell-based. The following applies: peptide 32 μg/mL; live E. coli TG-1; four independent assays.
For data set [8], the system named is M. luteus. In words: Growth inhibition assay, M. luteus. Type of data set: cell-based, Micrococcus luteus. The note with it: Luria-Bertani rich nutrient medium. How it is done:
Growth inhibition assays are performed using the candidate antibacterial compounds and the Gram positive microorganisms Micrococcus luteus and Bacillus megaterium, and the Gram negative microorganisms, Escherichia coli D22, Agrobacterium tumefaciens, and Salmonella typhimurium. Antibacterial assays are performed in sterilized 96-well plates (Nunc F96 microtiter plates) with a final volume of 100 μl as described in Bulet (1996), cited above. Briefly, 90 μl of a suspension of a midlogarithmic phase bacterial culture at an initial 600 nm UV absorbance of 0.001 in Luria-Bertani rich nutrient medium is added to 10 μl of serially diluted candidate compounds in sterilized water. The final compound concentrations range between 0.15 and 80 μM, and more preferably between 0.3 μM and 40 μM. The plates are incubated at 30° C. for 24 hours with gentle shaking, and the growth inhibition is measured by recording the increase of the UV absorbance at 600 nm on an SLT Labinstruments 400 ATC microplate reader. The experiments are conducted over a 7-month period.
The inhibitory concentrations (IC50) of each candidate compound is determined against each above-indicated microorganism.
As one example, this in vitro antibacterial assay was performed on a broad spectrum divalent pyrrhocoricin analog, Chex-Pyrrhocoricin-2-19-Dap-[Chex-Pyrrhocoricin-2-19-Dap(Ac)], and the results illustrated in Table 4.

In data set [9] the test system is E. coli infection. The following applies: Otvos et al, 2000, cited from earlier work.
Data set [10] concerns E. coli D22. The following applies: Otvos et al, 2000, Protein Science; cited from earlier work.
The test system of data set [11] is E. coli strain (ATCC 25922). In words: Validated antibacterial assay conditions, E. coli ATCC 25922. Type of data set: cell-based.
Data set [12] concerns the target E. coli DnaK fragment aa583-615 (D-E helix hinge) (Escherichia coli, UniProt P0A6Y8). In words: Fluorescence polarization with synthetic DnaK fragment aa583-615. Type of data set: binding. How it is done:
The binding of the synthetic DnaK fragments to their fluorescein-labeled pyrrhocoricin counterparts was also assessed in solution, by fluorescence polarization [Lundblad, J. R. et al, (1996) Mol. Endocrinol. 10: 607-612]. For these experiments, the unlabeled peptides were serially diluted in PBS (pH 7.4) or 0.1 M Tris-HCl (pH 8.0) containing 0.1 M ethylene-diamine-tetraacetic acid (EDTA) in 50 μL final volume in 6×50 mm disposable glass borosilicate tubes. The fluoresceinated peptides were added to each tube in a 50 μL aliquot to a final concentration of 1 nM and tubes were incubated at 37° C. for 5 minutes. The extent of fluorescence anisotropy was measured on a Beacon 2000 fluorescence polarization instrument (PanVera, Madison, Wis.) and calculated as millipolarization values. The filters used were 485 nm excitation and 535 nm emission with 3 nm band width. Non-linear curve fitting was done by using a dose-response logistical transition [y=a0+a1/(1+x/a2)^a^3] and the Levenberg-Marquardt Algorithm within the SlideWrite software package. The provided Kd value (a2 coefficient) was calculated by the program.
To quantitatively characterize the pyrrhocoricin—D-E helix interaction, the complete binding curves were measured for E. coli DnaK fragments aa583-615 and aa588-615, both of SEQ ID NO: 10.

In data set [13] the target is Hsp70 (Homo sapiens, UniProt P0DMV8). In words: EnzChek ATPase assay, recombinant Hsp70. Type of data set: biochemical. The following applies: human equivalent of DnaK.
In data set [14] the target is GroEL (Escherichia coli, UniProt P0A6F5). It counts as binding, E. coli. On the set-up: purchased; host or cells: E. coli. The following applies: then 1 nM fluorescein-K-pyrrhocoricin, no peptide 70 ± 10.
Data set [15] has as its system Ras. In words: Competition fluorescence polarization against labeled pyrrhocoricin, Ras. Type of data set: binding. The following applies: 4 μM Ras reading 52±7.
Data set [16] concerns the target S. aureus aa554-585 DnaK fragment (Staphylococcus aureus, UniProt P45554). In words: Circular dichroism of peptide - S. aureus DnaK fragment mixtures. Type of data set: binding. The following applies: wavelength of band maxima. How it is done: To estimate the bound conformation of the antibacterial peptides, the spectra of drosocin or pyrrhocoricin alone, as well as those of the E. coli and S. aureus DnaK fragments were recorded, followed by the recording of the CD spectra of antibacterial peptide-DnaK fragment mixtures. Finally the original spectra of the DnaK peptides were subtracted from the spectra of the mixtures, and the residual spectra, representing the conformation of the bound peptides were compared to the spectra of the antibacterial peptides alone. This exercise is justifiable only if the conformation of the protein fragments remain unchanged upon interaction with drosocin or pyrrhocoricin. […] It is expected that the binding will not modify the helix structure of the rigid DnaK fragments, but can influence the conformation of the flexible antibacterial peptides.
The results of this conformational analysis for pyrrhocoricin—E. coli DnaK interaction are as follows. The CD spectrum of the mixture of the two peptides resembled that of the DnaK fragment alone, except that the intensities were lower, due to the lower intensity of the CD spectrum of pyrrhocoricin.
To ascertain that this conformational change upon binding was not a spectroscopical artifact, the procedure was repeated with pyrrhocoricin and the DnaK peptide derived from the non-responsive strain S. aureus.

The test system of data set [17] is S. aureus. The note with it: Otvos et al, 2000, Biochemistry; cited from earlier work.
Data set [18] has as its system bacteria. In words: Bacterial killing by labeled and unlabeled pyrrhocoricin. It counts as cell-based.
In data set [19] the target is DnaK (Escherichia coli, UniProt P0A6Y8). It counts as binding, E. coli. Set-up: purchased; host or cells: E. coli.
Sequence of DnaK (P0A6Y8 whole entry): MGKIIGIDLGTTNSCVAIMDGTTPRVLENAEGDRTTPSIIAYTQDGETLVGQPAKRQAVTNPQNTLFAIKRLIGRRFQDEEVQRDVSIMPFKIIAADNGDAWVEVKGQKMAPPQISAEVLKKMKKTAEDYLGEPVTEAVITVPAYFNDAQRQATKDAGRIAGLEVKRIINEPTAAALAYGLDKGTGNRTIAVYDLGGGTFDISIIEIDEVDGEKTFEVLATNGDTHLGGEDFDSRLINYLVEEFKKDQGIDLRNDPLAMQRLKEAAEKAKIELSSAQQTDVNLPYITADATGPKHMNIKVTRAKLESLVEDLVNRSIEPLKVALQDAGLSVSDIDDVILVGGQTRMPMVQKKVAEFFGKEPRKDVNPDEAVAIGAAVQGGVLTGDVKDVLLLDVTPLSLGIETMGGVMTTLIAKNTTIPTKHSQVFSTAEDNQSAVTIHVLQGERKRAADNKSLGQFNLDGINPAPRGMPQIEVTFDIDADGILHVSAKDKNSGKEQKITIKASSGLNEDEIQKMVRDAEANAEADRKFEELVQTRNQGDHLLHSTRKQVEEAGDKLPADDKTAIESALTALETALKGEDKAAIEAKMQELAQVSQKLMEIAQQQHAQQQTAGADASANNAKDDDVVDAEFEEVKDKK

Sequence of GroEL (P0A6F5 2-548 limits assumed): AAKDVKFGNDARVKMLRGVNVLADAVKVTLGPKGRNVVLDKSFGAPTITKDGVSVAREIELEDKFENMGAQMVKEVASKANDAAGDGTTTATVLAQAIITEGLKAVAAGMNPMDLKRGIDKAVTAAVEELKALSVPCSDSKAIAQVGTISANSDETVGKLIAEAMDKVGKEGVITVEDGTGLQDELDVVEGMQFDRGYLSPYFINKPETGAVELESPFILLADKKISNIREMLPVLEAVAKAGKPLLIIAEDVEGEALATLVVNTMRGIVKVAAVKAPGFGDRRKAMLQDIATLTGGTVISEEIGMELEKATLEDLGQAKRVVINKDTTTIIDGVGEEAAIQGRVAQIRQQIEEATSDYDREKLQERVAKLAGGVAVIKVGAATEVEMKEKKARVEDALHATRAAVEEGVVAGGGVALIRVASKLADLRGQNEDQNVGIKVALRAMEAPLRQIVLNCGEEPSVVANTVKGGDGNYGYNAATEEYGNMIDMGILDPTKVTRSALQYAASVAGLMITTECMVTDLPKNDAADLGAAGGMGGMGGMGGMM
T1 sequence (P0A6Y8 whole entry): as the sequence (P0A6Y8 whole entry) above
Sequence of E. coli DnaK aa583-615 (P0A6Y8 584-616 limits assumed): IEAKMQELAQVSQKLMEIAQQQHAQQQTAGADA
Sequence of E. coli DnaK fragment aa583-615 (D-E helix hinge) (P0A6Y8 584-616): as the sequence (P0A6Y8 584-616 limits assumed) above
Sequence of E. coli DnaK fragment aa588-615 (P0A6Y8 589-616 limits assumed): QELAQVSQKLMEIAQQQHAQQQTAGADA
Sequence of S. aureus aa554-585 DnaK fragment (P45554 554-585 limits assumed): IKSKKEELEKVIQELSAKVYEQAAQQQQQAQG
Sequence of Hsp70 (P0DMV8 whole entry): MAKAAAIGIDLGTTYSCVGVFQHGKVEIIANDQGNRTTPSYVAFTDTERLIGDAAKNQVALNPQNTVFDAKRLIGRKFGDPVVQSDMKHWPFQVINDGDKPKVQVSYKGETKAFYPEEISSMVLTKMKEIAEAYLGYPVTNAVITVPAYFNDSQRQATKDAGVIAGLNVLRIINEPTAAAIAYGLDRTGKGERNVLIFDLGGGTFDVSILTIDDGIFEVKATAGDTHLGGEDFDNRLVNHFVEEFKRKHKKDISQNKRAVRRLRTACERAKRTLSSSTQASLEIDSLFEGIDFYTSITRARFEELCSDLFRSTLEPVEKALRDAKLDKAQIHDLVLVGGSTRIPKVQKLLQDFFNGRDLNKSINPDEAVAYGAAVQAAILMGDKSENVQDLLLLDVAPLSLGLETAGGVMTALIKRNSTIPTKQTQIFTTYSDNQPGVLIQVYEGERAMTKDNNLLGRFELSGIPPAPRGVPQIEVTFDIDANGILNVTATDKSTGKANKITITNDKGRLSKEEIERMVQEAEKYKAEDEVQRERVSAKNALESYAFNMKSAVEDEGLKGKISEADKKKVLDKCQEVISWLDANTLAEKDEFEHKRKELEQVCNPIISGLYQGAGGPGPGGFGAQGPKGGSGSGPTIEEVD

In the case of GKPRPYSPRPTSHPRPIRV [Drosocin], in [1], the “binding to aa588-615 fragment” value was “considerably weaker than pyrrhocoricin”. Besides, in data set [2] (32 μg/mL, FIG. 2A), the “effect on β-galactosidase activity after 6 hours” value is on record as “detrimental”. Further, in data set [2], the “Inhibition of enzymatic activity after 1 hour (%) β-Galactosidase” value is on record as 98 ± 68%. For the same molecule, the “degradation in diluted human serum” value in data set [3] is on record as “completely degraded”. Also, in data set [4], the “degradation in diluted mouse serum” value is “completely degraded”. For the same molecule, in data set [5], the “CD spectral change of the peptide upon mixing with DnaK fragment” value is listed as “did not appear to modify the conformation”. Further, the “effect on ATPase activity of recombinant DnaK” value in [6] is reported as “without affecting”. Further, in data set [7], the “Inhibition of enzymatic activity after 1 hour (%) Alkaline Phosphatase” value came to 35 ± 27%.

One may read the IC50 as the point on the concentration scale where inhibition reaches its midpoint. Read a high IC50 as a need for much substance. In data set [8], `CC[C@H](C)[C@H](NC(=O)[C@@H]1CCCN1C(=O)[C@H](CCCNC(=N)N)NC(=O)[C@@H]1CCCN1C(=O)[C@@H]1CCCN1C(=O)[C@@H](NC(=O)[C@@H]1CCCN1C(=O)[C@H](CCCNC(=N)N)NC(=O)[C@@H]1CCCN1C(=O)[C@H](CC(C)C)NC(=O)[C@H](Cc1ccc(O)cc1)NC(=O)[C@H](CO)NC(=O)CNC(=O)[C@H](CCCCN)NC(=O)[C@H](CC(=O)O)NC(=O)C1(NC(=O)[C@H](CN)NC(=O)[C@H](CCCNC(=N)N)NC(=O)[C@H](CC(N)=O)NC(=O)[C@H](Cc2ccc(O)cc2)NC(=O)[C@@H](NC(=O)[C@@H]2CCCN2C(=O)[C@H](CCCNC(=N)N)NC(=O)[C@@H]2CCCN2C(=O)[C@@H]2CCCN2C(=O)[C@@H](NC(=O)[C@@H]2CCCN2C(=O)[C@H](CCCNC(=N)N)NC(=O)[C@@H]2CCCN2C(=O)[C@H](CC(C)C)NC(=O)[C@H](Cc2ccc(O)cc2)NC(=O)[C@H](CO)NC(=O)CNC(=O)[C@H](CCCCN)NC(=O)[C@H](CC(=O)O)NC(=O)C2(N)CCCCC2)[C@@H](C)O)[C@@H](C)CC)CCCCC1)[C@@H](C)O)C(=O)N[C@@H](Cc1ccc(O)cc1)C(=O)N[C@@H](CC(N)=O)C(=O)N[C@@H](CCCNC(=N)N)C(=O)N[C@@H](CNC(C)=O)C(=O)O` [Chex-Pyrrhocoricin-2-19-Dap-[Chex-Pyrrhocoricin-2-19-Dap(Ac)]] (H-[Ac6c]DKGSYLPRPTPPRPIYNR[Dap][Ac6c]DKGSYLPRPTPPRPIYNR[Dap](Ac)-OH; C-terminus assumed) had an IC50 of 40 to 80 µM.

By Kd is commonly meant a measure of binding affinity in units of concentration. A low value points to a tighter complex. Take VDKGSYLPRPTPPRPIYNRN [pyrrhocoricin]: the toxicity in vivo entry in data set [9] (higher dose for pyrrhocoricin, compromised animals) is on record as “toxic to compromised animals”. In addition, the “protection of mice against E. coli infection” value in [9] (low doses for pyrrhocoricin) is “protected mice”. Moreover, the “killing of E. coli D22” value in data set [10] was “nanomolar concentrations”. In [11], the “killing of E. coli ATCC 25922” value is recorded as “failed to kill”. This molecule returned a Kd in data set [12] of 50.8 µM. Also, the “effect on ATPase activity of recombinant Hsp70” value in data set [13] is recorded as “did not influence”. Besides, the “Inhibition of enzymatic activity after 1 hour (%) β-Galactosidase” value in [2] is given as 153 ± 57%. Also, the “Millipolarization after preincubation with” value is 62 in [14] (4 μM GroEL preincubated with 4 μM unlabeled peptide, corrected with Ras readings); 62 in [14] (4 μM GroEL preincubated with 8 μM unlabeled peptide); 110 and 84 in [19]. The “decrease of the Ras readings” value worked out at 16 millipolarization units in [15] (preincubation with 4 μM peptide) and 27 millipolarization units in data set [15] (preincubation with 8 μM peptide). Further, the “CD spectral change of the peptide upon mixing with DnaK fragment” value in data set [16] was “remained unchanged”; in data set [5], “redshift of both pyrrhocoricin bands”. In [17], the “activity against S. aureus in vitro” value is “inactive”. In data set [6], the “effect on ATPase activity of recombinant DnaK” value is given as “less than half of the original value”. In addition, in data set [18], the “concentration range killing bacteria” value is listed as “mid-nanomolar concentration range”. The “Inhibition of enzymatic activity after 1 hour (%) Alkaline Phosphatase” value in data set [7] was determined as 32 ± 16%.
